# Reference: patent US9494589B2, “Method of determining the probability of a therapeutic response in cancer chemotherapy with cardiac glycoside” (priority 2007, dated 2016)
# How the values were obtained:
# [1] = test system: rodent (mouse and rat) tumor cell lines; assay: In vitro proliferation of rodent tumor cell lines; format: cell-based; details: rodent tumor cell lines lacking α3 subunit isoform
# Excerpt: Rodent (rat or mouse) cancer cells can be used as a negative control sample. FIG. 1A depicts a film developed against the gel of a Western blot analysis of rodent tumor cell lines. […] Human tumor cell lines are generally more sensitive to treatment with cardiac glycoside-containing composition than are murine tumor cells (FIG. 1B). The inventors believe this difference in therapeutic responsiveness is due to the differences in the ratio of α3 to α1 isoforms in the two different species, as noted above.
# [2] = test system: MiaPaca cells; assay: In vitro cytotoxicity, MTT assay of cell proliferation; format: cell-based, human; details: 72 hr; for IC50: Homo sapiens, MIA PaCa-2, Pancreas; for In vitro response: Pancreas
# Excerpt: (§1) As defined in the Tables above, an “in vitro response” denotes the extent to which proliferation of a given tumor cell line is inhibited with a stated concentration of drug (cardiac glycoside) over a defined period of time. A designation of “no response” denotes less than 50% growth inhibition at any of the multiple drug concentrations tested. That is, no concentration could be identified as an IC50 value (that concentration producing inhibition of cell growth by 50% over the stated period of time of the experiment). Accordingly, were this tumor cell line growing in a mammal such as a human, it is probable that the drug would be ineffective in producing significant inhibition of tumor growth. The designation of “partial response” in the Table above denotes the capacity of a given cardiac glycoside such as oleandrin or bufalin to inhibit cell proliferation by more than 50% but less than 75% relative to nontreated tumor cell growth. Accordingly, this would equate to a partial or less than complete therapeutic response of the tumor to the cardiac glycoside if this product were used to treat tumor growth in a mammal such as a human. […] Accordingly, it is probable that total inhibition of tumor growth (or a complete therapeutic response, in a mammal might be achieved.
# (§2) Cells were grown in their relevant media as indicated in the table below at a density of 1×10^4 cells/well. After a 24 hr incubation period, cells were treated with various concentrations of oleandrin (1 to 500 nM). After an additional 72 hr, inhibition of cellular proliferation was assessed by MTT assay (23). Absorbance was read at a wavelength of 570 nm and a reference wavelength of 650 nm using a V-Max Micro-plate Reader by Molecular Devices, Inc. (Sunnyvale, Calif.). The relative extent of inhibition of cell proliferation due to the presence of a given concentration of oleander extract or other plant extract containing a cardiac glycoside compound(s) can be derived by comparing treated to non-treated cell numbers after a set period of time allowing for cell growth (e.g. 24-72 hr).
# [3] = test system: PANC1 cells; assay: as above; format: cell-based, human; details: PANC1, Pancreas, 72 hr; for IC50: Homo sapiens, PANC-1
# Excerpt: as §1, §2
# [4] = test system: BXPC3 cells; assay: as above; format: cell-based, human; details: BXPC3, Pancreas; 72 hr
# Excerpt: as §1, §2
# [5] = test system: non-transfected Panc-1 cells; assay: Sensitivity to oleandrin of non-transfected Panc-1 cells; format: cell-based; details: Homo sapiens
# Excerpt: (§3) Still further proof of the relative importance of the α3/α1 isoform ratio toward predictability of a therapeutic response by a target malignant tissue to treatment with a cardiac glycoside was established by transfection of Panc-1 cells with α1 subunit isoform. The Na, K-ATPase α1 subunit isoform was transfected to Panc-1 cells, which normally lack α1 expression. The control sample in FIG. 5A is for non-transfected Panc-1 cells, and the α1cDNA sample in FIG. 5A is for Panc-1 cells transfected with the α1 subunit isoform. As a result, the ratio of α3 to α1 was reduced in the transfected Panc-1 cells (FIG. 5B). The sensitivity of the transfected Panc-1 cells to oleandrin treatment was then evaluated.
# [6] = test system: Panc-1 cells transfected with α3 siRNA; assay: Sensitivity to oleandrin of Panc-1 cells transfected with α3 siRNA, Calcein AM viability; format: cell-based, human; details: α3 expression reduced by siRNA; 10 to 50 nM, 48 hr
# Excerpt: Further proof of the relative importance of the α3/α1 isoform ratio toward predictability of a therapeutic response by a target malignant tissue to treatment with a cardiac glycoside was established as follows. Artificial down-regulation of the expression of α3 isoform in human pancreatic cancer cells, i.e. manipulation of isoform content of subunits of Na, K-ATPase, was achieved by transfection of cells with siRNA (silencing RNA) specific to the α3 isoform. […] Quantitation of the decreased expression of α3 by Western blot is detailed in FIG. 4B.
# Panc-1 cells were plated in 6 and 48 well plates and allowed to attach overnight. Transient transfection of α3 siRNA molecules was carried out using siPORT™ Amine Transfection Agent (Ambion Austin, Tex.) and 0.4 μM α3 silencing RNA (Santa Cruz Biotech.) following the manufacture's instructions. Twenty-four hr after transfection, cells were treated with 10 to 50 nM oleandrin for 48 hr. Protein was collected from the 6 well plates for Western blot analysis and cell viability assessment was carried out by Calcien AM staining.
# [7] = test system: human tumor cell lines; assay: Mean IC50 of growth inhibition in groups of tumor cell lines by α3/α1 isoform ratio; format: cell-based; details: ten cell lines α3/α1 >1.0 versus six cell lines α3/α1 <1.0
# Description: FIG. 3A depicts a plot of concentration (nM) of oleandrin (provided as oleandrin) versus the percentage of growth of control. […] Exemplary cell lines for the groups are: Group I-MDA231, BXPC3, MCF-7; Group II-SUM149, BRO; Group III-Panc-1, CaCo2. The response data are as predicted by the isoform ratio data. In order to establish the robustness of the method and kit of the invention, a statistical analysis of cellular response data was conducted. The data in FIG. 3B depict the relative ability of oleandrin-containing composition to inhibit human tumor cell proliferation in vitro. The data are depicted as Mean±SD. Oleandrin mediated growth inhibition was examined in ten cell lines (representing a variety of solid tumors) in which the relative subunit content α3/α1 isoform ratio >1.0 and six cell lines in which the α3/α1 isoform ratio <1.0.
# Student's t test was used to determine the statistical differences between various experimental groups; a value of P<0.05 was considered to be significant.
# [8] = test system: HCT116 cells; assay: In vitro cytotoxicity, MTT assay of cell proliferation; format: cell-based, human; details: HCT116, Colon, 72 hr
# Excerpt: as §1, §2
# [9] = test system: HT29 cells; assay: as above; format: cell-based, human; details: HT29, Colon, 72 hr
# Excerpt: as §1, §2
# [10] = test system: LS174T cells; assay: as above; format: cell-based, human; details: Colon, 72 hr
# Excerpt: as §1, §2
# [11] = test system: SUM149 cells; assay: as above; format: cell-based, human; details: SUM149, Breast, 72 hr
# Excerpt: as §1, §2
# [12] = test system: DOD-1 cells; assay: as above; format: cell-based, human; details: DOD-1, Colon, 72 hr
# Excerpt: as §1, §2
# [13] = test system: MDA231 cells; assay: as above; format: cell-based, human; details: MDA231, Breast; 72 hr
# Excerpt: as §1, §2
# [14] = test system: MCF7 cells; assay: as above; format: cell-based, human; details: MCF7, Breast; 72 hr
# Excerpt: as §1, §2
# [15] = test system: CACO2 cells; assay: as above; format: cell-based, human; details: CACO2, Colon, 72 hr
# Excerpt: as §1, §2
# [16] = test system: BRO cells; assay: as above; format: cell-based, human; details: Melanoma, 72 hr
# Excerpt: as §1, §2
# [17] = test system: α1 transfected Panc-1 cells; assay: Sensitivity to oleandrin of Panc-1 cells transfected with α1 subunit isoform; format: cell-based; details: Homo sapiens
# Excerpt: as §3
# [18] = test system: Human pancreatic cancer PANC-1 cells; assay: Cytotoxicity comparison of oleandrin and extracts, crystal violet staining; format: cell-based; details: oleandrin equivalent concentrations, 72 hr
# Description: (§4) The cytotoxic potential of both extracts are compared directly with that of oleandrin. The samples contained the same amounts of oleandrin even though their concentration of oleandrin differed due to the concentration of oleandrin present in the extracts.
# (§5) BRO (human melanoma) and Panc-1 (human pancreatic cancer) cells (8×10^3/well) were plated in a 96 well plate and allowed to attach overnight. Drug or extracts were then added to the cells. After 72 hr of incubation, relative cell proliferation (relative to control untreated cells) was assessed by crystal violet staining method.
# [19] = test system: Human melanoma BRO cells; assay: as above; format: cell-based; details: oleandrin equivalent concentrations, 72 hr
# Description: as §4, §5
structure (smiles),measurement,setting,value
C[C@]12CC[C@H](O)C[C@H]1CC[C@@H]1[C@@H]2CC[C@]2(C)[C@@H](c3ccc(=O)oc3)CC[C@]12O [bufalin],Inhibition of proliferation in vitro,[1],not significantly inhibited
same,IC50,[2],2.1 nM
same,In vitro response,[2],Complete*** (Denotes greater than 75% growth inhibition achieved at 62 nM)
same,IC50,[3],1.2 nM
same,In vitro response,[3],Complete*** (Denotes greater than 75% growth inhibition achieved at 62 nM)
same,In vitro response,[4],No* (Denotes less than 50% growth inhibition achieved at concentrations up to 125 nM)
CO[C@H]1C[C@H](O[C@H]2CC[C@@]3(C)[C@H](CC[C@@H]4[C@@H]3CC[C@]3(C)[C@@H](C5=CC(=O)OC5)[C@@H](OC(C)=O)C[C@]43O)C2)O[C@@H](C)[C@@H]1O [oleandrin],Inhibition of proliferation in vitro,[1],not significantly inhibited
same,IC50,[5],4.1 nM
same,Sensitivity of transfected cells to treatment,[6],lose their sensitivity
same,Difference in mean IC50 between cell line groups,[7],8 fold
same,In vitro response,[8],Partial** (Denotes greater than 50% but less than 75% growth inhibition achieved at 62 nM)
same,IC50,"[8]; Homo sapiens, HCT-116",36.2 nM
same,In vitro response,[9],Complete*** (Denotes greater than 75% growth inhibition achieved at 62 nM)
same,IC50,"[9]; Homo sapiens, HT-29",15.6 nM
same,In vitro response,[10],Complete*** (Denotes greater than 75% growth inhibition achieved at 62 nM)
same,IC50,[10]; Homo sapiens,20.7 nM
same,IC50,[11]; Homo sapiens,22.5 nM
same,In vitro response,[11],Partial** (Denotes greater than 50% but less than 75% growth inhibition achieved at 62 nM)
same,In vitro response,[12],Complete*** (Denotes greater than 75% growth inhibition achieved at 62 nM)
same,IC50,[12]; Homo sapiens,19.6 nM
same,In vitro response,[13],No* (Denotes less than 50% growth inhibition achieved at concentrations up to 125 nM)
same,IC50,[2],14.2 nM
same,In vitro response,[2],Complete*** (Denotes greater than 75% growth inhibition achieved at 62 nM)
same,In vitro response,[14],No* (Denotes less than 50% growth inhibition achieved at concentrations up to 125 nM)
same,IC50,[3],6.1 nM
same,In vitro response,[3],Complete*** (Denotes greater than 75% growth inhibition achieved at 62 nM)
same,In vitro response,[4],No* (Denotes less than 50% growth inhibition achieved at concentrations up to 125 nM)
same,In vitro response,[15],Complete*** (Denotes greater than 75% growth inhibition achieved at 62 nM)
same,IC50,"[15]; Homo sapiens, Caco-2",9.4 nM
same,IC50,[16]; Homo sapiens,8.2 nM
same,In vitro response,[16],Complete*** (Denotes greater than 75% growth inhibition achieved at 62 nM)
same,IC50,[17],> 50 nM
same,IC50,[18],10 nM
same,IC50,[19],17 nM
C[C@@H]1O[C@@H](O[C@H]2C[C@@H](O)[C@]3(CO)[C@H]4[C@H](O)C[C@]5(C)[C@@H](C6=CC(=O)OC6)CC[C@]5(O)[C@@H]4CC[C@]3(O)C2)[C@H](O)[C@H](O)[C@H]1O [ouabain],Inhibition of proliferation in vitro,[1],not significantly inhibited
